From patent publication US12247033B2, “Triazole-substituted imidazo[1,2-a]pyrimidines as cGAS inhibitors” (GlaxoSmithKline Intellectual Property Development Limited, priority 2022, dated 2025)
Counter-ions that a name gives are not always drawn.

biological target: human CGAS (157-522) (Homo sapiens, UniProt Q8N884); test: biochemical
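Also: biochemical enzyme reaction, 2′3′-cGAMP product measured by RapidFire mass spectrometry (MRM) normalised to c-di-UMP internal standard, inhibition of product formation relative to high and low control wells.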

human CGAS (157-522), sequence (Q8N884 157-522): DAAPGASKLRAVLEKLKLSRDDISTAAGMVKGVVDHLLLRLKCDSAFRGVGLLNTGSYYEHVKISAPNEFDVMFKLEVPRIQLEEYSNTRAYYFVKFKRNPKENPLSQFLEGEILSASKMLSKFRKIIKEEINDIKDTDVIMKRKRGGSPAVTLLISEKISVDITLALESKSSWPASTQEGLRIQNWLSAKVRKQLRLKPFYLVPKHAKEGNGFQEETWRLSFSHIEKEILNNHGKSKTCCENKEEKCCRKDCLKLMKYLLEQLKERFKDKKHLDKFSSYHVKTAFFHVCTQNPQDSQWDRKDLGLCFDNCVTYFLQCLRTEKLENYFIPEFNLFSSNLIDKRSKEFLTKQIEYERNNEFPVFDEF

IC50 [nM] | Structure (SMILES)
10 | FC(F)(F)c1n[nH]c(-c2nc3ncccn3c2-c2cn[nH]c2)n1 [Example 11, 5-[3-(1H-pyrazol-4-yl)imidazo[1,2-a]pyrimidin-2-yl]-3-(trifluoromethyl)-1H-1,2,4-triazole, trifluoroacetic acid salt]
12.6 | CN1Cc2cn3c(-c4cnc[nH]4)c(-c4nc(C(F)(F)F)n[nH]4)nc3nc2C(F)(F)C1 [Example 18, 13,13-difluoro-6-(1H-imidazol-5-yl)-11-methyl-5-[3-(trifluoromethyl)-1H-1,2,4-triazol-5-yl]-2,4,7,11-tetraazatricyclo[7.4.0.0^3,7]trideca-1,3,5,8-tetraene, trifluoroacetic acid salt]
2 | CS(=O)(=O)Oc1cnc2nc(-c3nc(C(F)(F)F)n[nH]3)c(-c3cnc[nH]3)n2c1 [Example 20, 3-(1H-Imidazol-5-yl)-2-(3-(trifluoromethyl)-1H-1,2,4-triazol-5-yl)imidazo[1,2-a]pyrimidin-6-yl methanesulfonate]
3.16 | COC(=O)c1ccn2c(-c3cn[nH]c3)c(-c3nc(Br)n[nH]3)nc2n1 [Example 35, methyl 2-(3-bromo-1H-1,2,4-triazol-5-yl)-3-(1H-pyrazol-4-yl)imidazo[1,2-a]pyrimidine-7-carboxylate]
3.16 | COC(=O)c1ccn2c(-c3c[nH]cn3)c(-c3nc(Br)n[nH]3)nc2n1 [Example 36, methyl 2-(3-bromo-1H-1,2,4-triazol-5-yl)-3-(1H-imidazol-4-yl)imidazo[1,2-a]pyrimidine-7-carboxylate]
3.16 | Brc1n[nH]c(-c2nc3ncccn3c2-c2c[nH]cn2)n1 [Example 37, 3-bromo-5-[3-(1H-imidazol-4-yl)imidazo[1,2-a]pyrimidin-2-yl]-1H-1,2,4-triazole, trifluoroacetic acid salt]
25.1 | CC(C)Oc1ccn2c(-c3c[nH]cn3)c(-c3nc(Br)n[nH]3)nc2n1 [Example 40, 3-bromo-5-[3-(1H-imidazol-4-yl)-7-(propan-2-yloxy)imidazo[1,2-a]pyrimidin-2-yl]-1H-1,2,4-triazole]
25.1 | FC(F)(F)c1n[nH]c(-c2nc3nc(N4CCOCC4)ccn3c2-c2c[nH]cn2)n1 [Example 42, 4-[3-(1H-imidazol-4-yl)-2-[3-(trifluoromethyl)-1H-1,2,4-triazol-5-yl]imidazo[1,2-a]pyrimidin-7-yl]morpholine]
15.8 | CN(C)c1ccn2c(-c3cnc[nH]3)c(-c3nc(C(F)(F)F)n[nH]3)nc2n1 [Example 43]
3.16 | FC(F)(F)c1n[nH]c(-c2nc3ncc(Cl)cn3c2-c2cnc[nH]2)n1 [Example 45, 5-[6-chloro-3-(1H-imidazol-5-yl)imidazo[1,2-a]pyrimidin-2-yl]-3-(trifluoromethyl)-1H-1,2,4-triazole]
1.58 | CCc1nc2nc(-c3nc(C(F)(F)F)n[nH]3)c(-c3cnc[nH]3)n2cc1C [Example 47, 5-[7-ethyl-3-(1H-imidazol-5-yl)-6-methylimidazo[1,2-a]pyrimidin-2-yl]-3-(trifluoromethyl)-1H-1,2,4-triazole]
2 | FC(F)(F)c1n[nH]c(-c2nc3nc4c(cn3c2-c2cnc[nH]2)CCO4)n1 [Example 48, 12-(1H-imidazol-5-yl)-11-[3-(trifluoromethyl)-1H-1,2,4-triazol-5-yl]-6-oxa-1,8,10-triazatricyclo[7.3.0.0^3,^7]dodeca-2,7,9,11-tetraene]
12.6 | COc1cc(OC)n2c(-c3c[nH]cn3)c(-c3nc(C(F)(F)F)n[nH]3)nc2n1 [Example 49, 5-[3-(1H-imidazol-4-yl)-5,7-dimethoxyimidazo[1,2-a]pyrimidin-2-yl]-3-(trifluoromethyl)-1H-1,2,4-triazole]
10 | COc1cn2c(-c3c[nH]cn3)c(-c3nc(C(F)(F)F)n[nH]3)nc2nc1C [Example 51, 5-[3-(1H-imidazol-4-yl)-6-methoxy-7-methylimidazo[1,2-a]pyrimidin-2-yl]-3-(trifluoromethyl)-1H-1,2,4-triazole]
5.01 | Cc1cn2c(-c3cnc[nH]3)c(-c3nc(C(F)(F)F)n[nH]3)nc2nc1C [Example 52, 5-[3-(1H-imidazol-5-yl)-6,7-dimethylimidazo[1,2-a]pyrimidin-2-yl]-3-(trifluoromethyl)-1H-1,2,4-triazole]
15.8 | OC1CCN(c2ccn3c(-c4cnc[nH]4)c(-c4nc(C(F)(F)F)n[nH]4)nc3n2)C1 (centres unmarked) [Example 53, 1-[3-(1H-imidazol-5-yl)-2-[3-(trifluoromethyl)-1H-1,2,4-triazol-5-yl]imidazo[1,2-a]pyrimidin-7-yl]pyrrolidin-3-ol]
6.31 | Cc1cnc2nc(-c3nc(C(F)(F)F)n[nH]3)c(-c3cnc[nH]3)n2c1 [Example 54, 5-[3-(1H-imidazol-5-yl)-6-methylimidazo[1,2-a]pyrimidin-2-yl]-3-(trifluoromethyl)-1H-1,2,4-triazole]
20 | OC1CCCN(c2ccn3c(-c4cnc[nH]4)c(-c4nc(C(F)(F)F)n[nH]4)nc3n2)C1 (centres unmarked) [Example 56, 1-[3-(1H-imidazol-5-yl)-2-[3-(trifluoromethyl)-1H-1,2,4-triazol-5-yl]imidazo[1,2-a]pyrimidin-7-yl]piperidin-3-ol]
12.6 | COc1nc2nc(-c3nc(C(F)(F)F)n[nH]3)c(-c3cnc[nH]3)n2cc1C [Example 59, 5-[3-(1H-imidazol-5-yl)-7-methoxy-6-methylimidazo[1,2-a]pyrimidin-2-yl]-3-(trifluoromethyl)-1H-1,2,4-triazole]
0.794 | Oc1cnc2nc(-c3nc(C(F)(F)F)n[nH]3)c(-c3cnc[nH]3)n2c1 [Example 60, 3-(1H-imidazol-5-yl)-2-[3-(trifluoromethyl)-1H-1,2,4-triazol-5-yl]imidazo[1,2-a]pyrimidin-6-ol]
10 | O=C(O)Cc1cnc2nc(-c3nc(C(F)(F)F)n[nH]3)c(-c3cnc[nH]3)n2c1 [Example 92, 2-[3-(1H-imidazol-5-yl)-2-[3-(trifluoromethyl)-1H-1,2,4-triazol-5-yl]imidazo[1,2-a]pyrimidin-6-yl]acetic acid]
1580 | CC(C)(C)CNC(=O)c1cnc2nc(-c3nc(C(F)(F)F)n[nH]3)c(-c3cnc[nH]3)n2c1 [Example 94, N-(2,2-dimethylpropyl)-3-(1H-imidazol-5-yl)-2-[3-(trifluoromethyl)-1H-1,2,4-triazol-5-yl]imidazo[1,2-a]pyrimidine-6-carboxamide]
7940 | FC(F)(F)c1ccn2c(-c3cnc[nH]3)c(-c3ncn[nH]3)nc2n1 [Example 97, 5-[3-(1H-imidazol-5-yl)-7-(trifluoromethyl)imidazo[1,2-a]pyrimidin-2-yl]-1H-1,2,4-triazole]
794 | Cc1n[nH]c(-c2nc3nc(C(F)(F)F)ccn3c2-c2cnc[nH]2)n1 [Example 98, 5-[3-(1H-imidazol-5-yl)-7-(trifluoromethyl)imidazo[1,2-a]pyrimidin-2-yl]-3-methyl-1H-1,2,4-triazole]
3.16 | O=C(O)c1ccn2c(-c3c[nH]cn3)c(-c3nc(C(F)(F)F)n[nH]3)nc2n1 [Example 102, 3-(1H-imidazol-4-yl)-2-[3-(trifluoromethyl)-1H-1,2,4-triazol-5-yl]imidazo[1,2-a]pyrimidine-7-carboxylic acid]
7.94 | CC(O)C(O)COCc1cnc2nc(-c3nc(C(F)(F)F)n[nH]3)c(-c3cnc[nH]3)n2c1 (centres unmarked) [Example 112, 1-{[3-(1H-imidazol-5-yl)-2-[3-(trifluoromethyl)-1H-1,2,4-triazol-5-yl]imidazo[1,2-a]pyrimidin-6-yl]methoxy}butane-2,3-diol]
